Test results from patent US5432064A, “Process for dephosphorylating linear polynucleotide substrate with prosphatase form aspergillus niger” (Board of Regents of the University of Nebraska, priority 1992, dated 1995).

Target: Aspergillus niger heat-labile phosphatase (4-nitrophenylphosphatase), purified, strain NRRL-3
Assay: A. niger phosphatase activity assay with 4-NPP as substrate (formation of p-nitrophenol at 400 nm)
Assay type: biochemical
Method: A. niger phosphatase activity was routinely determined by monitoring, in a spectrophotometer set at an absorbance wavelength of 400 nm, the formation of p-nitrophenol generated by the hydrolysis of 4-NPP (purchased from Calbiochem). Non-enzymatic hydrolysis controls were routinely included. The phosphatase assay contained the following in a total volume of 1.0 ml: 8 mM 4-NPP; 25 mM Tris-HCl (pH 8.0); and 5 mM MgCl2. The reaction, which was initiated by addition of the crude, mycelium-free supernatant fluid mentioned above, was carried out at 30° C. in a Varian DMS 70 spectrophotometer with a wavelength bandpass of 2 nanometers. Molar absorptivity of 4-nitrophenol at pH 8.0 was 1.62×10^4 M^-1 cm^-1.
To further examine one of these potential substrates at a greater level of sensitivity, the enzyme was incubated with [gamma-^32 P]ATP under identical conditions and assayed for the liberation of ^32 Pi. No liberation above background was detected and hydrolysis of ATP appeared to occur at a rate less than one/ten-millionth of that observed with 4-NPP.
Prospective inhibitors were added to the standard assay with 4-NPP as substrate and inhibition was monitored and expressed as percent inhibition of the untreated sample (TABLE 3).

[1] = 1 mM inhibitor, incubated with the phosphatase for 15 minutes at room temperature prior to assay, 4-NPP as substrate
[2] = 1 mM inhibitor, standard assay with 4-NPP as substrate
[3] = 10 mM inhibitor, standard assay with 4-NPP as substrate

Row | Inhibition (%) [3] | SMILES | Inhibition (%) [1] | Inhibition (%) [2] | also measured
1 | – | Nc1ncnc2c1ncn2[C@@H]1O[C@H](COP(=O)(O)OP(=O)(O)OP(=O)(O)O)[C@@H](O)[C@H]1O [ATP, adenosine triphosphate] | – | – | Ki (competitive inhibition of hydrolysis of 4-NPP, read-out: Ki for ATP): 1.3 mM
2 | – | CCN1C(=O)C=CC1=O [N-ethylmaleimide] | 75% | – | –
3 | 56% | O=P(O)(O)OP(=O)(O)O [PPi, inorganic pyrophosphate] | – | 4% | –
4 | – | O=C(O)CI [iodoacetate] | 96% | – | –
5 | 39% | O=P(O)(O)O [orthophosphate] | – | – | –

Row | SMILES | Inhibition (%) [3] | Inhibition (%) [1] | Inhibition (%) [2] | also measured
6 | [F-].[Na+] [sodium fluoride] | 80% | – | 22% | –
